The half-life is how long it takes for the measured level to halve. Read a high half-life as slow decline.

We go through 4 molecules from ChEMBL document CHEMBL1129767, “Synthesis and properties of 25 and 35 linked -oligoriboadenylates” (Bioorg Med Chem Lett, 1996).

Assay type in all cases: ADME
A short description of data set [1]: Biological half life period of compound was measured against RNaseT2. To be noted: RNase T2.
Data set [2] in a line: Biological half life period of compound was measured against nuclease P1.
Data set [3] can be described thus: Biological half life period of compound was measured against snake venom phosphodiesterase (SVPDE). To be noted: serpentes.
A short description of data set [4]: Biological half life period of compound was measured against RNaseT2; NC: Not cleaved.
The nature of data set [5]: Biological half life period of compound was measured against nuclease P1;NC: Not cleaved.
Data set [6] can be described thus: Biological half life period of compound was measured against RNaseT2; N C: Not cleaved.

`Nc1ncnc2c1ncn2C1O[C@H](COP(=O)(O)O[C@H]2[C@@H](O)[C@H](n3cnc4c(N)ncnc43)O[C@@H]2CO)[C@@H](O)[C@H]1O` (some centres not stated): the half-life in data set [1] is 12.6 min; in data set [2], 7.8 min; in data set [3], 3.6 min.

In the case of `Nc1ncnc2c1ncn2C1OC(COP(=O)(O)O[C@@H]2[C@H](O)[C@@H](CO)O[C@@H]2n2cnc3c(N)ncnc32)[C@@H](O)[C@H]1O` (single isomer, unassigned), the T1/2 entry in data set [4] and in data set [5] was “Not cleaved” throughout. The half-life in data set [3] is 18 min.

In the case of `Nc1ncnc2c1ncn2C1O[C@H](COP(=O)(O)O[C@@H]2[C@H](O)[C@@H](CO)O[C@H]2n2cnc3c(N)ncnc32)[C@@H](O)[C@H]1O` (some centres not stated), the T1/2 entry in data set [6] and in data set [5] was “Not cleaved” in each case. The half-life in data set [3] was 3.6 min.

For the molecule `Nc1ncnc2c1ncn2C1OC(COP(=O)(O)O[C@@H]2C(CO)O[C@H](n3cnc4c(N)ncnc43)[C@@H]2O)[C@@H](O)[C@H]1O` (single isomer, unassigned), in data set [6], the T1/2 entry is on record as “Not cleaved”. Besides, the half-life in data set [2] was 120 min; in data set [3], 31.8 min.
